From US12427183B2, “Methods of treating cancer, infectious disease, and autoimmune disease using chemokines” (New York Society for the Relief of the Ruptured and …, priority 2016, dated 2025)

Legend:
PI3Kδ = PI3Kδ (Homo sapiens, UniProt O00329); settings: at the concentration used (10 μM)
CXCR3 = CXCR3 inhibition during chemokine-potentiated TLR9 activation of pDCs, IFN-α ELISA; format: cell-based, human; settings: AMG487 0.1, 1 or 10 μM, CpG 0.25 μM, 24 hours
Experimental: Purified pDCs from HDs were cultured in media alone (control), with either a CpG TLR9 agonist (0.25 μM) or with CpG and either CXCL4 or CXCL10 (both at 10 μg/ml) alone or in the presence of the CXCR3 inhibitor AMG487 at 0, 0.1, 1 or 10 μM for 24 hours. IFN-α was quantified in the supernatants by ELISA.

Sequence of PI3Kδ (O00329 whole entry): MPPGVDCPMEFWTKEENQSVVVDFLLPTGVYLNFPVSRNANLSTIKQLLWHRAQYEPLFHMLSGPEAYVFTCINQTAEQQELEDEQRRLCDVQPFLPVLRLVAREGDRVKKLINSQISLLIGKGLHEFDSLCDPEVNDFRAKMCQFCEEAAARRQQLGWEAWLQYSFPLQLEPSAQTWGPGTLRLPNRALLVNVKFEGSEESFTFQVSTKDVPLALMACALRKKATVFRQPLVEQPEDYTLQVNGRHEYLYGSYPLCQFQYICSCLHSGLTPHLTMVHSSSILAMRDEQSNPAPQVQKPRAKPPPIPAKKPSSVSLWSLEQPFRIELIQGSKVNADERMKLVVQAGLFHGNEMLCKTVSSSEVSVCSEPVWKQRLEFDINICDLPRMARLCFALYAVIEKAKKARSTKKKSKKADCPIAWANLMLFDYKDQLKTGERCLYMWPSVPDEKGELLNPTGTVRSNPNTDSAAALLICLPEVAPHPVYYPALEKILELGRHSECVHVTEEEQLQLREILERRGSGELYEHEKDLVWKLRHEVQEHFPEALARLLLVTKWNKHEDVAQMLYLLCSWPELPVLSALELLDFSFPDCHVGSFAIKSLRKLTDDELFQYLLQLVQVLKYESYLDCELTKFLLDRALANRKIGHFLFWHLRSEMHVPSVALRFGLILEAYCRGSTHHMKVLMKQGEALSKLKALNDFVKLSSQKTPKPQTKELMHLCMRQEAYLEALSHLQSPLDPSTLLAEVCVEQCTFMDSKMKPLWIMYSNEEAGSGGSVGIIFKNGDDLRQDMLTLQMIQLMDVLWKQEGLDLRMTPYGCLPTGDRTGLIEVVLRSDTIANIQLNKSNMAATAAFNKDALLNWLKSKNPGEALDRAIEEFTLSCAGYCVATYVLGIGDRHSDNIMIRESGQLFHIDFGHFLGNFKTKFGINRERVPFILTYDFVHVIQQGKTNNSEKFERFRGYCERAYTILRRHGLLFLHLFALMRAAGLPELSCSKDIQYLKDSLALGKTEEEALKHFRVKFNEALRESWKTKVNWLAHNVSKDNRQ
Sequence of PI3Kδ (P27986 whole entry partner): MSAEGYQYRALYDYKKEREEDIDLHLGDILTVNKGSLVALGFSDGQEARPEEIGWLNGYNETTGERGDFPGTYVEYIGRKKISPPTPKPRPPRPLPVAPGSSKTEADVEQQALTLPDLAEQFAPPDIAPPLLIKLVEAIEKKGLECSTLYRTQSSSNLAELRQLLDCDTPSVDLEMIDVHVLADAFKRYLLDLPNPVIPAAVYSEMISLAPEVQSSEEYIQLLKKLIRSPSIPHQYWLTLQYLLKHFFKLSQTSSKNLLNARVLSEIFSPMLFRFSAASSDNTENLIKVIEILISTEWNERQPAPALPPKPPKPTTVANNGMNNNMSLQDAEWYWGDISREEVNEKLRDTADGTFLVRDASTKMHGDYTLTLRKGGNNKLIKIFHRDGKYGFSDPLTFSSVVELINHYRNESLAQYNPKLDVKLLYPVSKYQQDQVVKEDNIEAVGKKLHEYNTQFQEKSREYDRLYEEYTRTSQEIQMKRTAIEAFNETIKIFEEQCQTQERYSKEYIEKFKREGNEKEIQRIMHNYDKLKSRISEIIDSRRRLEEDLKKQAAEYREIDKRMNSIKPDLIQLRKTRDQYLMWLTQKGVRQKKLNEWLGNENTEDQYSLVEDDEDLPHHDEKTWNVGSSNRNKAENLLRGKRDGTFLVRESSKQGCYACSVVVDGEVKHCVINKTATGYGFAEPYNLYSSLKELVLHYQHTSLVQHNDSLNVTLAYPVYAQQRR

Structure (SMILES): CC[C@H](Nc1ncnc2[nH]cnc12)c1nc2cccc(F)c2c(=O)n1-c1ccccc1 [CAL-101]
- cell viability of pDCs from HDs (PI3Kδ): without impacting

Structure (SMILES): CCOc1ccc(-n2c([C@@H](C)N(Cc3cccnc3)C(=O)Cc3ccc(OC(F)(F)F)cc3)nc3ncccc3c2=O)cc1 [AMG487]
- effect of CXCR3 inhibition on the activation of TLR9 by CXCL4 in pDCs (CXCR3; CXCL4 10 μg/ml): no effect
- effect of CXCR3 inhibition on the activation of TLR9 by CXCL10 in pDCs (CXCR3; CXCL10 10 μg/ml): no effect
